Reference: patent US20250296953A1, “3,4-THIAZOLO-STEROIDS AND METHODS OF MAKING AND USING THE SAME” (Arkansas State University - Jonesboro, priority 2018, published 2025)
Where two headings read alike, the source gives them in different places.

How the values were obtained:
[1] = test system: NCI-H522 (NSCLC); assay: NCI 60 one dose screen; type: cell-based, human; settings: Non-small Cell Lung Cancer
[2] = test system: 60 different human tumor cell lines; assay: NCI Development Therapeutics Program 60 cell line screen, one dose; type: cell-based
[3] = test system: RPMI-8226; assay: NCI 60 five dose screen
[4] = test system: glioblastoma (SF-295); assay: NCI 60 five dose screen
[5] = test system: 60 different human tumor cell lines; assay: cells

## C[C@]12CCc3sc(Nc4ccc(OC(F)(F)F)cc4)nc3C1=CC[C@@H]1[C@@H]2CC[C@]2(C)C(=O)CC[C@@H]12 [IIa.19, (1S,2R,13R,14S,18S)-2,18-dimethyl-7-[4-(trifluoromethoxy)anilino]-6-thia-8-azapentacyclo[11.7.0.02,10.05,9.014,18]icosa-5(9),7,10-trien-17-one]
[1]
  Growth Percent: 89.13%
[2]; Breast Cancer, BT-549
  Growth Percent: 53.50%
[2]; Breast Cancer, HS 578T
  Growth Percent: 38.46%
[2]; Breast Cancer, MCF7
  Growth Percent: 17.08%
[2]; Breast Cancer, MDA-MB-231/ATCC
  Growth Percent: 73.45%
[2]; Breast Cancer, MDA-MB-468
  Growth Percent: 69.12%
[2]; Breast Cancer, T-47D
  Growth Percent: 41.82%
[2]; CNS Cancer, SF-268
  Growth Percent: 68.55%
[2]; CNS Cancer, SNB-19
  Growth Percent: 56.49%
[2]; CNS Cancer, SNB-75
  Growth Percent: 68.60%
[2]; CNS Cancer, U251
  Growth Percent: 34.08%
[2]; Colon Cancer, COLO 205
  Growth Percent: 67.03%
[2]; Colon Cancer, HCC-2998
  Growth Percent: 96.47%
[2]; Colon Cancer, HCT-116
  Growth Percent: 7.77%
[2]; Colon Cancer, HT29
  Growth Percent: 12.95%
[2]; Colon Cancer, KM12
  Growth Percent: 53.51%
[2]; Colon Cancer, SW-620
  Growth Percent: 43.34%
[2]; Leukemia, CCRF-CEM
  Growth Percent: 5.05%
[2]; Leukemia, HL-60(TB)
  Growth Percent: 43.98%
[2]; Leukemia, K-562
  Growth Percent: 8.20%
[2]; Leukemia, MOLT-4
  Growth Percent: 4.15%
[2]; Leukemia, RPMI-8226
  Growth Percent: 2.88%
[2]; Leukemia, SR
  Growth Percent: 16.86%
[2]; Melanoma, LOX IMVI
  Growth Percent: 34.82%
[2]; Melanoma, M14
  Growth Percent: 83.90%
[2]; Melanoma, MALME-3M
  Growth Percent: 76.83%
[2]; Melanoma, MDA-MB-435
  Growth Percent: 77.59%
[2]; Melanoma, SK-MEL-2
  Growth Percent: 61.81%
[2]; Melanoma, SK-MEL-5
  Growth Percent: 95.89%
[2]; Melanoma, SK-MEL-28
  Growth Percent: 65.29%
[2]; Melanoma, UACC-62
  Growth Percent: 63.42%
[2]; Melanoma, UACC-257
  Growth Percent: 84.04%
[2]; Non-small Cell Lung Cancer, A549/ATCC
  Growth Percent: 67.03%
[2]; Non-small Cell Lung Cancer, EKVX
  Growth Percent: 78.41%
[2]; Non-small Cell Lung Cancer, HOP-62
  Growth Percent: 80.02%
[2]; Non-small Cell Lung Cancer, HOP-92
  Growth Percent: 74.98%
[2]; Non-small Cell Lung Cancer, NCI-H23
  Growth Percent: 75.47%
[2]; Non-small Cell Lung Cancer, NCI-H226
  Growth Percent: 74.91%
[2]; Non-small Cell Lung Cancer, NCI-H322M
  Growth Percent: 77.29%
[2]; Non-small Cell Lung Cancer, NCI-H460
  Growth Percent: 53.27%
[2]; Ovarian Cancer, IGROV1
  Growth Percent: 93.62%
[2]; Ovarian Cancer, NCI/ADR-RES
  Growth Percent: 81.59%
[2]; Ovarian Cancer, OVCAR-3
  Growth Percent: 37.42%
[2]; Ovarian Cancer, OVCAR-4
  Growth Percent: 63.99%
[2]; Ovarian Cancer, OVCAR-5
  Growth Percent: 91.93%
[2]; Ovarian Cancer, OVCAR-8
  Growth Percent: 66.51%
[2]; Ovarian Cancer, SK-OV-3
  Growth Percent: 69.90%
[2]; Prostate Cancer, DU-145
  Growth Percent: 66.11%
[2]; Prostate Cancer, PC-3
  Growth Percent: 38.59%
[2]; Renal Cancer, 786-0
  Growth Percent: 30.50%
[2]; Renal Cancer, A498
  Growth Percent: 75.00%
[2]; Renal Cancer, ACHN
  Growth Percent: 71.59%
[2]; Renal Cancer, CAKI-1
  Growth Percent: 60.44%
[2]; Renal Cancer, RXF 393
  Growth Percent: −32.25%
[2]; Renal Cancer, SN12C
  Growth Percent: 71.17%
[2]; Renal Cancer, TK-10
  Growth Percent: 98.20%
[2]; Renal Cancer, UO-31
  Growth Percent: 54.33%
[3]; Homo sapiens, RPMI-8226
  GI50: 1.02 µM
[3]; Homo sapiens, RPMI-8226, read-out: LC50
  CC50: > 100 µM
[3]; RPMI-8226 (Leukemia), five dose
  TGI: 3.77E−6
[4]; Homo sapiens, SF-295
  GI50: 0.7 µM
[4]; Homo sapiens, SF-295, read-out: LC50
  CC50: 7.16 µM
[4]; SF-295 (CNS Cancer), five dose
  TGI: 2.44E−6
[5]; A549
  GI50: 3.35 µM
[5]; A549, read-out: LC50
  CC50: 73.5 µM
[5]; CCRF-CEM
  GI50: 1.42 µM
[5]; CCRF-CEM, read-out: LC50
  CC50: > 100 µM
[5]; COLO 205
  GI50: 2.61 µM
[5]; COLO 205, read-out: LC50
  CC50: 58.7 µM
[5]; EKVX
  GI50: 2.63 µM
[5]; EKVX, read-out: LC50
  CC50: 95.7 µM
[5]; HCC 2998
  GI50: 5.32 µM
[5]; HCC 2998, read-out: LC50
  CC50: 51.2 µM
[5]; HCT-15
  GI50: 1.69 µM
[5]; HCT-15, read-out: LC50
  CC50: 9.97 µM
[5]; HCT-116
  GI50: 1.28 µM
[5]; HL-60
  GI50: 1.93 µM
[5]; HL-60, read-out: LC50
  CC50: > 100 µM
[5]; HOP-62
  GI50: 1.92 µM
[5]; HOP-62, read-out: LC50
  CC50: 9.14 µM
[5]; HOP-92
  GI50: 1.43 µM
[5]; HOP-92, read-out: LC50
  CC50: 8.26 µM
[5]; HT-29
  GI50: 2.39 µM
[5]; HT-29, read-out: LC50
  CC50: > 100 µM
[5]; K562
  GI50: 1.87 µM
[5]; K562, read-out: LC50
  CC50: > 100 µM
[5]; KM12
  GI50: 3.56 µM
[5]; KM12, read-out: LC50
  CC50: > 100 µM
[5]; LOX IMVI
  GI50: 1.74 µM
[5]; LOX IMVI, read-out: LC50
  CC50: 5.82 µM
[5]; MOLT-4
  GI50: 1.53 µM
[5]; MOLT-4, read-out: LC50
  CC50: > 100 µM
[5]; Malme-3M
  GI50: 3.45 µM
[5]; Malme-3M, read-out: LC50
  CC50: 84.5 µM
[5]; NCI-H23
  GI50: 3.73 µM
[5]; NCI-H23, read-out: LC50
  CC50: 94.6 µM
[5]; NCI-H226
  GI50: 6.37 µM
[5]; NCI-H226, read-out: LC50
  CC50: > 100 µM
[5]; NCI-H322M
  GI50: 6.05 µM
[5]; NCI-H322M, read-out: LC50
  CC50: > 100 µM
[5]; NCI-H460
  GI50: 3.25 µM
[5]; NCI-H460, read-out: LC50
  CC50: 41.9 µM
[5]; NCI-H522
  GI50: 2.14 µM
[5]; NCI-H522, read-out: LC50
  CC50: 9.7 µM
[5]; SF-268
  GI50: 3.01 µM
[5]; SF-268, read-out: LC50
  CC50: 57.3 µM
[5]; SNB-19
  GI50: 2.12 µM
[5]; SNB-19, read-out: LC50
  CC50: 46 µM
[5]; SNB-75
  GI50: 1.88 µM
[5]; SNB-75, read-out: LC50
  CC50: 29.6 µM
[5]; SW-620
  GI50: 2.21 µM
[5]; SW-620, read-out: LC50
  CC50: 18.5 µM
[5]; U-251
  GI50: 1.09 µM
[5]; U-251, read-out: LC50
  CC50: 9.78 µM
